Measurements from the NIST ThermoML archive (doi:10.1021/acs.jced.6b00197).

How the values were obtained:
[1] = Liquid; for mass density: 293.15 K, 101.33 kPa, Pycnometric method; for Normal boiling temperature: Ebulliometric method (Recirculating still)
[2] = Boiling temperature at pressure P; conditions: Liquid, Ebulliometric method (Recirculating still)
[3] = refractive index (Na D-line) (dimensionless); conditions: 293.25 K; 101.33 kPa; Liquid; Standard Abbe refractometry

CC(C)CCO [3-methylbutan-1-ol]
Conditions | Normal boiling temperature [°C] | mass density [kg/m3] | refractive index
[1] | 131.30 | 810 | –
[3] | – | – | 1.4067

[2]
Conditions | Boiling temperature at pressure P [°C]
5 kPa | 62.70
10 kPa | 75.77
19.99 kPa | 90.18
40.01 kPa | 106.36
49.99 kPa | 111.97
59.99 kPa | 116.67
79.99 kPa | 124.46
100 kPa | 130.86
101.31 kPa | 131.21
120 kPa | 136.04
139.99 kPa | 141.06
159.99 kPa | 145.36
180.01 kPa | 149.28
200 kPa | 152.86

CC(=O)OCCC(C)C [3-methylbutyl ethanoate]
Conditions | Normal boiling temperature [°C] | mass density [kg/m3] | refractive index
[1] | 142.09 | 873 | –
[3] | – | – | 1.4008

[2]
Conditions | Boiling temperature at pressure P [°C]
4.98 kPa | 59.86
10.05 kPa | 75.04
19.88 kPa | 92.10
39.98 kPa | 111.42
50.03 kPa | 118.20
60.02 kPa | 123.93
79.97 kPa | 133.43
99.82 kPa | 141.17
101.09 kPa | 141.63
120.12 kPa | 147.90
140.02 kPa | 153.64
159.98 kPa | 158.77
179.92 kPa | 163.38
199.94 kPa | 167.59
